According to ChEMBL document CHEMBL1150986, “Tripeptidyl pyridinium methyl ketones as potent active site inhibitors of thrombin” (Bioorg Med Chem Lett, 1996):
One block for each compound: values may come before it.

Columns and labels:
Prothrombin [1] = target: T1, Prothrombin (Homo sapiens, UniProt P00734); experiment: Compound was measured for the inhibition of alpha-human thrombin by amidolytic assay
Prothrombin [2] = target: T1, Prothrombin; experiment: Compound was measured for the inhibition of alpha-human thrombin by clotting test

Compound: N=C(N)NCCC[C@H](NC(=O)[C@@H]1CCCN1C(=O)[C@H](N)CC1CCCCC1)C(=O)C[n+]1ccccc1
- IC50 (Prothrombin [1]): 0.0017 µM
- Ki (Prothrombin [2]): 0.00019 µM

Compound: CC(=O)N[C@H](Cc1ccccc1)C(=O)N1CCC[C@H]1C(=O)N[C@@H](CCCNC(=N)N)C(=O)C[n+]1ccccc1
- IC50 (Prothrombin [1]): 2.7 µM
- Ki (Prothrombin [2]): 0.31 µM

Compound: CC(=O)[C@H](CCCN=C(N)N)NC(=O)[C@@H]1CCCN1C(=O)[C@H](N)CC1CCCCC1
- IC50 (Prothrombin [1]): 0.41 µM
- Ki (Prothrombin [2]): 0.06 µM

Compound: N=C(N)NCCC[C@H](NC(=O)[C@@H]1CCCN1C(=O)[C@H](N)CC1CCCCC1)C(=O)Cc1ccccc1
- IC50 (Prothrombin [1]): 0.0099 µM
- Ki (Prothrombin [2]): 0.00125 µM

Second part, the compound after the results:

- IC50 (Prothrombin [1]): 0.18 µM
- Ki (Prothrombin [2]): 0.021 µM
Compound: CC(=O)N[C@H](CC1CCCCC1)C(=O)N1CCC[C@H]1C(=O)N[C@@H](CCCN=C(N)N)C(=O)C[n+]1ccccc1

- IC50 (Prothrombin [1]): 0.63 µM
- Ki (Prothrombin [2]): 0.185 µM
Compound: CC(=O)N[C@H](CC1CCCCC1)C(=O)N1CCC[C@H]1C(=O)N[C@@H](CCCN=C(N)N)C(=O)Cc1ccccc1
